Measured values taken from patent US4816393A, “Nucleoside triphosphate-dependent 1-methylhydantoinase, a process for obtaining it and the use thereof” (Boehringer Mannheim GmbH, priority 1984, dated 1989).
Where two headings read alike, the source gives them in different places.

Legend:
[1] = tested on: 1-methylhydantoinase; assay: Nucleotide specificity of 1-methylhydantoinase (via carbamoylsarcosinamidohydrolase + sarcosine oxidase); format: biochemical, Arthrobacter species DSM 2563; settings: nucleotide 4 mmol/liter
Description: Relative activity in % (ATP=100) determined via the reaction sequence catalyzed by carbamoylsarcosinamidohydrolase+sarcosine oxidase:
(§1) The activity determination was carried out as follows: […]
(§2) 2. 1-Methylhydantoin solution: 10 mmol/liter
(§3) Wavelength 546 mn; T=25° C.; light path 1 cm.; final volume 2.03 ml.; extinction coefficient of the dye formed=13 cm^2 /μmol. […]
(§4) ^++ For the investigation according to Points 2, 3b, 4, 5 and 6 given
(§5) 4. Calculation: [formula] Remark: ΔA/min. must not to be more than 0.66; otherwise dilute sample. Lag phase about 5 minutes.

[2] = tested on: 1-methylhydantoinase; assay: Metal ion dependence of 1-methylhydantoinase activity; format: biochemical, Arthrobacter species DSM 2563
Description: Relative activity in % (5 mmol/liter magnesium chloride=100)
as §1
2. 1-Methylhydantoin solution: 10 mmol/liter […]
as §4, §5

[3] = tested on: 1-methylhydantoinase; assay: Activators of 1-methylhydantoinase; format: biochemical, Arthrobacter species DSM 2563
Description: Relative activity in % (30 mmol/liter ammonium sulphate (AS)=100)
as §1, §2, §3, §4, §5

[4] = tested on: 1-methylhydantoinase; assay: Michaelis constants of 1-methylhydantoinase; format: biochemical, Arthrobacter species DSM 2563; settings: pH 7.8
[5] = tested on: 1-methylhydantoinase; assay: Inhibitors of 1-methylhydantoinase; format: biochemical, Arthrobacter species DSM 2563; settings: for relative activity %: 7.5 mM Mg++ in the reaction mixture
Description: as §1, §2, §3, §4, §5

[6] = tested on: 1-methylhydantoinase; assay: Enzymatic colour test for the determination of creatinine; format: biochemical
Text: 1. Enzymatic colour tetst for the determination of 1-methylhydantoin (1-methylhydantoinase/N-carbamoylsarcosinamidohydrolase/sarcosine oxidase reaction with peroxidase/4-aminoantipyrine/2,4,6-tribromo-3-hydroxybenzoicacid colour indicator system) […]
Corresponding to reagent 1.1. of Example 5, however with the addition of creatinine iminohydrolase, 2 U/ml. (final concentration).
Corresponding to Point 1.2 of Example 5 but, as sample, there are used aqueous creatinine solutions (0.0877 to 1.754 mmol/liter) and the incubation period for P and RL is prolonged to 20 minutes.

[7] = activator substance 30 mmol/liter

## Nc1ncnc2c1ncn2[C@@H]1O[C@H](COP(=O)(O)O)[C@@H](O)[C@H]1O [AMP]
[1]
  Relative activity in % (ATP=100): 0%

## O=P(O)(O)OP(=O)(O)O [PPi, pyrophosphate]
[1]
  Relative activity in % (ATP=100): 0%

## [Cl-].[Cl-].[Zn+2] [ZnCl2]
[2]; metal salt 5 mmol/liter
  Relative activity in % (5 mmol/liter magnesium chloride=100): 24%

## CC(=O)O [NH4 acetate]
[3]; [7]
  Relative activity in % (30 mmol/liter ammonium sulphate (AS)=100): 98%

## O=P([O-])([O-])OP(=O)([O-])OP(=O)([O-])[O-].[Na+].[Na+].[Na+].[Na+].[Na+] [Na tripolyphosphate]
[1]
  Relative activity in % (ATP=100): 0%

## O=C(O)O [NaHCO3]
[3]; [7]
  Relative activity in % (30 mmol/liter ammonium sulphate (AS)=100): 40%

## [Cl-].[Cl-].[Mg+2] [MgCl2, magnesium chloride]
[2]; metal salt 1 mmol/liter
  Relative activity in % (5 mmol/liter magnesium chloride=100): 83%
[2]; metal salt 5 mmol/liter
  Relative activity in % (5 mmol/liter magnesium chloride=100): 100%
[2]; metal salt 10 mmol/liter
  Relative activity in % (5 mmol/liter magnesium chloride=100): 98%

## Nc1ncnc2c1ncn2[C@@H]1O[C@H](COP(=O)(O)OP(=O)(O)OP(=O)(O)O)[C@@H](O)[C@H]1O [ATP, adenosine-5'-triphosphate]
[4]; TES 0.15 mol/liter, via sarcosine, read-out: Km ATP
  Km: 800 µM
[1]
  Relative activity in % (ATP=100): 100%

## O=C(O)CN(CCN(CC(=O)O)CC(=O)O)CC(=O)O [EDTA]
[5]
  Inhibition (in words): Significant inhibition
[5]; EDTA 5 mol/liter (so in the source)
  relative activity %: 100%
[5]; EDTA 10 mol/liter (so in the source)
  relative activity %: 42%
[5]; EDTA 50 mol/liter (so in the source)
  relative activity %: 2%

## Cl.N [NH4 Cl, ammonium chloride]
[3]; [7]
  Relative activity in % (30 mmol/liter ammonium sulphate (AS)=100): 91%

## N.N.O=S(=O)(O)O [(NH4)2 SO4, ammonium sulphate]
[3]; [7]
  Relative activity in % (30 mmol/liter ammonium sulphate (AS)=100): 100%
[3]; activator substance 10 mol/liter
  Relative activity in % (30 mmol/liter ammonium sulphate (AS)=100): 95%

## O=S(=O)([O-])[O-].[K+].[K+] [K2 SO4]
[3]; [7]
  Relative activity in % (30 mmol/liter ammonium sulphate (AS)=100): 59%

## O=S(=O)([O-])[O-].[Li+].[Li+] [Li2 SO4]
[3]; [7]
  Relative activity in % (30 mmol/liter ammonium sulphate (AS)=100): 40%

## Nc1ccn([C@@H]2O[C@H](COP(=O)(O)OP(=O)(O)OP(=O)(O)O)[C@@H](O)[C@H]2O)c(=O)n1 [CTP]
[1]
  Relative activity in % (ATP=100): 1.5%

## O=S(=O)([O-])[O-].[Na+].[Na+] [Na2 SO4]
[3]; [7]
  Relative activity in % (30 mmol/liter ammonium sulphate (AS)=100): 39%

## Nc1ncnc2c1ncn2[C@@H]1O[C@H](COP(=O)(O)OP(=O)(O)O)[C@@H](O)[C@H]1O [ADP]
[1]
  Relative activity in % (ATP=100): 1%

## Cc1cn([C@H]2C[C@H](O)[C@@H](COP(=O)(O)OP(=O)(O)OP(=O)(O)O)O2)c(=O)[nH]c1=O [TTP]
[1]
  Relative activity in % (ATP=100): 0%

## CN1CC(=O)NC1=N [creatinine]
[6]; creatinine iminohydrolase omitted from Reagent 8.1
  colour reaction: no colour reaction

## [Cl][Mn][Cl] [MnCl2]
[2]; metal salt 5 mmol/liter
  Relative activity in % (5 mmol/liter magnesium chloride=100): 60%

## [Cl-].[Na+] [NaCl]
[3]; [7]
  Relative activity in % (30 mmol/liter ammonium sulphate (AS)=100): 41%

## [F-].[Na+] [NaF]
[5]
  Inhibition (in words): Significant inhibition
[5]; 1×10^-2 mol/liter
  inhibition: 100%

## Na hexametaphosphate
[1]
  Relative activity in % (ATP=100): 0%

## N [NH4^+]
[3]
  Activation (in words): Significant activation

## Nc1nc2c(ncn2[C@@H]2O[C@H](COP(=O)(O)OP(=O)(O)OP(=O)(O)O)[C@@H](O)[C@H]2O)c(=O)[nH]1 [GTP]
[1]
  Relative activity in % (ATP=100): 7%

## CN1CC(=O)NC1=O [1-methylhydantoin]
[4]; 0.15 mol/liter TES, via ATP, read-out: Km 1-methylhydantoin
  Km: 20 µM

## O=c1ccn([C@@H]2O[C@H](COP(=O)(O)OP(=O)(O)OP(=O)(O)O)[C@@H](O)[C@H]2O)c(=O)[nH]1 [UTP]
[1]
  Relative activity in % (ATP=100): 0%

## CN(CC(=O)O)C(=N)N [creatine]
[6]; creatine solution (884 μmol/liter) as sample instead of creatinine, test batch 8.2
  colour reaction: no colour reaction
